Here are results for 17 molecules from BindingDB's records for doi:10.1016/j.bmc.2007.06.041 (Seoul National University, 2007).

Sequence of Transient receptor potential cation channel subfamily V member 1 (O35433 whole entry): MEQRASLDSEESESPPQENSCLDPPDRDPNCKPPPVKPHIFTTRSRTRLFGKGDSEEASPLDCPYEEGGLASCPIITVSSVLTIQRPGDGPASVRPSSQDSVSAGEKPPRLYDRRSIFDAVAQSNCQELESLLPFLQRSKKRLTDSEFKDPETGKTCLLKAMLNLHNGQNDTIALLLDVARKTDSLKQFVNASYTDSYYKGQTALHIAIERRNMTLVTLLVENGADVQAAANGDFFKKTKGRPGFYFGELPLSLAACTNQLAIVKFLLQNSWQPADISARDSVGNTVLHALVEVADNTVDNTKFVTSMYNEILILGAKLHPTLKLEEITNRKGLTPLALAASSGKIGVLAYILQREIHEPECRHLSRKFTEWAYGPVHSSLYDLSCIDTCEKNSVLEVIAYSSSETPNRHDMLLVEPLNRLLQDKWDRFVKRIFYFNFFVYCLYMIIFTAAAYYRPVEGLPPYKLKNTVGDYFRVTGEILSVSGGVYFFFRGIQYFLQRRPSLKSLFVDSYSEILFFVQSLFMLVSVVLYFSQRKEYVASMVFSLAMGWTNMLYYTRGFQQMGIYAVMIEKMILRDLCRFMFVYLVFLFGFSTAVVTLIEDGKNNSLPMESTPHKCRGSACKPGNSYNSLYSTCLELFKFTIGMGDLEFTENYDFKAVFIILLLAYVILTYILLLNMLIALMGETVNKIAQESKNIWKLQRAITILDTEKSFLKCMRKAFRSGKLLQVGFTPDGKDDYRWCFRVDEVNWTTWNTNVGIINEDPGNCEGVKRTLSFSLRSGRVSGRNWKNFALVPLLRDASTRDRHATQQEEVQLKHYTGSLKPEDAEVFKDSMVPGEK

The target of this test is Transient receptor potential cation channel subfamily V member 1 (Rattus norvegicus, UniProt O35433). In words: Competition Binding Assay and Inhibition of Ca2+ Uptake Assay. The note with it: pH 7.4; 37 °C. On the procedure:
Binding assay mixtures were set up and contained [3H] RTX, various concentrations of competing ligands, and rVR1-transfected CHO cells. Nonspecific binding was determined in the presence of 100 nM nonradioactive RTX. After the binding reaction, membrane-bound RTX was separated from the free by centrifugation, and the radioactivity was determined by scintillation counting. Equilibrium binding parameters (Ki, Bmax, and cooperativity) were determined by fitting the Hill equation to the measured values with the aid of the program Origin 6.0.
One may read the Ki as a dissociation constant, usually derived from enzyme kinetics or from competition with a known ligand. Consider `CC(NC(=S)NCc1ccc(C(C)(C)C)cc1)c1ccc(NS(C)(=O)=O)c(F)c1` (configuration not stated) [3-[(4-tert-butylphenyl)methyl]-1-[1-(3-fluoro-4-methanesulfonamidophenyl)ethyl]thiourea], for which the Ki stood at 0.0092 µM.
Next, `COc1cc(C2(NC(=S)NCc3ccc(C(C)(C)C)cc3)CC2)ccc1NS(C)(=O)=O` [1-[(4-tert-butylphenyl)methyl]-3-[1-(4-methanesulfonamido-3-methoxyphenyl)cyclopropyl]thiourea]: 0.243 µM; `CC(C)(C)c1ccc(CNC(=S)NC(C)(C)c2ccc(NS(C)(=O)=O)cc2)cc1` [3-[(4-tert-butylphenyl)methyl]-1-[2-(4-methanesulfonamidophenyl)propan-2-yl]thiourea]: 1.8 µM; `CC(C)(C)c1ccc(CNC(=S)NC2(c3ccc(NS(C)(=O)=O)cc3)CC2)cc1` [1-[(4-tert-butylphenyl)methyl]-3-[1-(4-methanesulfonamidophenyl)cyclopropyl]thiourea]: 0.06 µM.
With `CC(C)C(NC(=S)NCc1ccc(C(C)(C)C)cc1)c1ccc(NS(C)(=O)=O)c(F)c1` (configuration not stated) [3-[(4-tert-butylphenyl)methyl]-1-[1-(3-fluoro-4-methanesulfonamidophenyl)-2-methylpropyl]thiourea] the figure was 0.223 µM.
With `CC(C)(C)c1ccc(CNC(=S)NCc2ccc(NS(C)(=O)=O)c(F)c2)cc1` [JYL1421] the figure was 0.0092 µM; with `COc1cc(C(C)(C)NC(=S)NCc2ccc(C(C)(C)C)cc2)ccc1NS(C)(=O)=O` [3-[(4-tert-butylphenyl)methyl]-1-[2-(4-methanesulfonamido-3-methoxyphenyl)propan-2-yl]thiourea], 0.663 µM; with `COc1cc(C(C)NC(=S)NCc2ccc(C(C)(C)C)cc2)ccc1NS(C)(=O)=O` (configuration not stated) [3-[(4-tert-butylphenyl)methyl]-1-[1-(4-methanesulfonamido-3-methoxyphenyl)ethyl]thiourea], 0.0286 µM.
Molecule `CC(C)(C)c1ccc(CNC(=S)NC(c2ccccc2)c2ccc(NS(C)(=O)=O)c(F)c2)cc1` (configuration not stated) [3-[(4-tert-butylphenyl)methyl]-1-[(3-fluoro-4-methanesulfonamidophenyl)(phenyl)methyl]thiourea] came in with a Ki of 0.86 µM.
Molecule `CC(NC(=S)NCc1ccc(C(C)(C)C)cc1)c1ccc(NS(C)(=O)=O)cc1` (configuration not stated) [3-[(4-tert-butylphenyl)methyl]-1-[1-(4-methanesulfonamidophenyl)ethyl]thiourea] yielded a Ki of 0.0147 µM.
Next, `CC(C)(C)c1ccc(CNC(=S)NC(Cc2ccccc2)c2ccc(NS(C)(=O)=O)c(F)c2)cc1` (configuration not stated) [3-[(4-tert-butylphenyl)methyl]-1-[1-(3-fluoro-4-methanesulfonamidophenyl)-2-phenylethyl]thiourea]: 0.7 µM.
With `Oc1cc2c(cc1O)CN(C(=S)NCCc1ccc(Cl)cc1)CCC2` [N-[2-(4-chlorophenyl)ethyl]-7,8-dihydroxy-2,3,4,5-tetrahydro-1H-2-benzazepine-2-carbothioamide] the figure was 0.52 µM; with `C[C@@H](NC(=S)NCc1ccc(C(C)(C)C)cc1)c1ccc(NS(C)(=O)=O)c(F)c1` [3-[(4-tert-butylphenyl)methyl]-1-[(1R)-1-(3-fluoro-4-methanesulfonamidophenyl)ethyl]thiourea], 0.037 µM; with `C[C@@H](NC(=S)NCc1ccc(C(C)(C)C)cc1)c1ccc(NS(C)(=O)=O)cc1` [3-[(4-tert-butylphenyl)methyl]-1-[(1R)-1-(4-methanesulfonamidophenyl)ethyl]thiourea], 0.0045 µM.
In the case of `C[C@H](NC(=S)NCc1ccc(C(C)(C)C)cc1)c1ccc(NS(C)(=O)=O)c(F)c1` [3-[(4-tert-butylphenyl)methyl]-1-[(1S)-1-(3-fluoro-4-methanesulfonamidophenyl)ethyl]thiourea], the affinity, expressed as Ki, was 2.67 µM.
With `CC(C)(C)c1ccc(CNC(=S)NC(C)(C)c2ccc(NS(C)(=O)=O)c(F)c2)cc1` [3-[(4-tert-butylphenyl)methyl]-1-[2-(3-fluoro-4-methanesulfonamidophenyl)propan-2-yl]thiourea] the figure was 0.98 µM; with `CCC(NC(=S)NCc1ccc(C(C)(C)C)cc1)c1ccc(NS(C)(=O)=O)c(F)c1` (configuration not stated) [3-[(4-tert-butylphenyl)methyl]-1-[1-(3-fluoro-4-methanesulfonamidophenyl)propyl]thiourea], 0.054 µM.
